Experimental data: US8895726B2, “Compounds derived from indole and pharmaceutical compositions containing them” (The Institut Curie, priority 2007, dated 2014)

Assays:
Assay type in all cases: cell-based
[1] = test system: Ter G1 mRNA; experiment: NMD measurement by RT-PCR, β-globin (G1) Ter mRNA; conditions: both at the nucleus and at the cytoplasm (Ter G1 and Ter GPx1 mRNA)
Experimental: HeLa cells were grown in 60 mm dishes in DMEM medium (Dulbecco's Modified Eagle Medium, GIBCO-BRL) supplemented with 10% (v/v) of fetal calf serum at 37° C. and with 5% CO2. The cells (1×10^6) were then transfected with 3 μg of test plasmids pmCMV-G1 (Norm or 39Ter) (Sun et al., 1998) or 3 μg pf test plasmids pmCMV-GPx1 (Norm or 46Ter) (Moriarty et al., 1998) and 1 μg of reference plasmid phCMV-MUP (Belgrader and Maquat, 1994) by using the LIPOFECTAMINE PLUS REAGENT (INVITROGEN) kit according to the instructions of the manufacturer. 24 hours after transfection, the cells were treated for 20 hours with 5 μM of each of the compounds to be tested or with 0.01% (v/v) DMSO as a control. The total RNA was purified by using TRI reagent (SIGMA-ALDRICH) according to the instructions of the manufacturer, and then reverse transcription of the mRNAs G1, GPx1 and MUP was carried out before PCR amplification, in the presence of a ^32P-radiolabelled dCTP nucleotide. The PCR conditions and the analysis method were described earlier (Ishigaki et al., 2001). The PCR products were quantified on a Typhoon 9200 (Amersham Biosciences).
HeLa cells were transfected with two test plasmids coding for the RNAs of β-globin (G1) and of glutathione peroxidase 1 (GPx1) and having a termination codon either premature (Ter) or not (Norm). The G1 mRNA is subject to an NMD associated with the nucleus in non-erythroid cells (Thermann et al., 1998; Zhang et al., 1998) while GPx1 mRNA is subject to cytoplasmic NMD (Moriarty et al., 1998). Further, a reference plasmid coding of mRNA of a major urinary protein (MUP) was also introduced into the cells (Ishigaki et al., 2001).
24 hours after transfection, the cells were incubated for 20 hours with DMSO (−) as a control, or with 5 μM of indole compounds shown in Table I. After 20 hours, the total RNAs are finally purified and analyzed by RT-PCR.

[2] = test system: HeLa cells; experiment: Cell toxicity under the experimental conditions; conditions: tested maximum concentration of 125 μM
Source text: The results have shown that among the 30 tested compounds, five of them were able to stabilize both the Ter G1 mRNA level and the Ter GPx1 mRNA level and this in a dose-dependent way.

[3] = test system: hUPF1, hSMG5, hSMG6, hSMG7, hUPF3, hUPF3X in HeLa cells; experiment: Immunofluorescence localization of NMD factors at P-bodies
Experimental: HeLa cells were grown on 12 mm glass slides in 10% (v/v) FBS DMEM. The cells (10^5) were transiently transfected with 500 ng of plasmids pGFP-GE1 (Yu et al., 2005), pYFP-hSmg5, pYFP-hSmg6, YFP-hSmg7 (Unterholzner and Izaurralde, 2004), pGFP-CCR4, pCFP-DCP 1a (Cougot et al., 2004), pCI-neo-FLAG-hUpf1 (Sun et al., 1998), pcDNA3-hUpf3a-FLAG, pcDNA3-hUpf3b-FLAG (Lykke-Andersen et al., 2000), pmCMV-G1 (Norm or 39Ter) (Sun et al., 1998) or pmCMV-GPx1 (Norm or 46Ter) (Moriarty et al., 1998). 24 hours after transfection, the cells were treated with 5 μM of compounds to be tested or 0.001% (v/v) DMSO as a control. After 20 hours, the cells were fixed by using a formalin solution (SIGMA-ALDRICH) for 10 min at room temperature and permeabilized with a 70% ethanol solution overnight at 4° C.
For the immunofluorescence tests, the fixed cells were incubated with anti-FLAG mouse antibody (SIGMA-ALDRICH) for 2 hours at room temperature, washed three times in PBS and then incubated with a mouse antibody conjugate to Cy3 or to FITC (JACKSON IMMUNORESEARCH) for one hour at room temperature. Finally, the cells were washed three times in PBS before being incubated in Hoechst ([…]) (SIGMA-ALDRICH) for 2 minutes at room temperature.
HeLa cells were transfected with the expression vectors coding for YFP-hSMG5, YFP-hSMG6 or YFP-hSMG7 ((Unterholzner and Izaurralde, 2004) and CFP-hDCP1a as a marker of P-bodies. After 24 hours, the cells were incubated in the presence of DMSO or of 5 μM of compound 70.
HeLa cells were transfected with the expression vectors coding for hUPF3-FLAG or hUPF3X-FLAG and with one of the following markers of P-bodies: YFP-hSMG6, YFP-hSMG7, GFP-GE1 and CFP-hDCP1a. The cells were treated with DMSO or the compound 70 before conducting immunofluorescence experiments. As for the non-treated cells (Serin et al., 2001) hUPF3 or hUPF3X are essentially localized at the nucleus when the cells are incubated with DMSO(−).

**Q.** For `Cc1c2ccnc(Cl)c2c(C)c2c1[nH]c1ncccc12` [Compound 70, 6-Chloro-5,1-0dimethyl-11H-pyrido[3′,2′:4,5]-pyrrolo[3,2-g]isoquinoline], which “NMD inhibition” value [1] is on record?
**A.** The value was “inhibitors of NMD”.

**Q.** What about the cell toxicity [2] of the same compound?
**A.** Its cell toxicity is “did not exhibit any cell toxicity”.

**Q.** And the “cell localization of FLAG-hUPF1” value ([3]; HeLa cells)?
**A.** The value was “cytoplasmic concentrations of FLAG-hUPF1”.

**Q.** And the “localization of YFP-hSMG5” value ([3]; HeLa cells, 5 μM, exogenous protein)?
**A.** Its value is “no longer observed in cytoplasmic foci”.

**Q.** And the “localization of YFP-hSMG6 or YFP-hSMG7” value ([3]; HeLa cells, 5 μM, exogenous proteins)?
**A.** The value was “co-localize with the marker of the P-bodies”.

**Q.** And the “localization of hUPF3 and hUPF3X” value ([3]; HeLa cells, hUPF3-FLAG or hUPF3X-FLAG)?
**A.** Its value is “cytoplasmic localization of hUPF3 and hUPF3X with accumulations in foci corresponding to P-bodies”.

**Q.** What about the “localization of endogenous hSMG5” value ([3]; endogenous protein) of the same compound?
**A.** The value was “not detected at the cytoplasmic foci”.

**Q.** And the “localization of endogenous hSMG6 and hSMG7” value ([3]; endogenous proteins)?
**A.** The value was “concentration of hSMG6 and hSMG7 proteins at the P-bodies”.
